Test results as given in patent US4233309A, “Novel 1-substituted-3-acylpyrrole derivatives, platelet aggregation inhibitors containing them, as active ingredients, and processes for production of said derivatives” (Teijin Limited, priority 1977, dated 1980).
In brackets after ≈: the same amount, converted by molar mass. Like-named read-outs stand apart in the source and are kept apart here.

Legend:
[1] = tested on: platelet aggregation (platelet-rich plasmas (PRP) of guinea pigs); assay: Activity of inhibiting platelet aggregation in vitro, guinea pig PRP, sodium arachidonate as aggregating agent (Table 1); assay type: cell-based, Hartley-strain male guinea pigs; settings: Cavia porcellus, sodium arachidonate 0.03 mM final, 37° C., final concentration, read-out: IC50 (minimum concentration of drug which showed a percent inhibition of more than 50%)
Experimental: (§1) Some 1-substituted-3-acylpyrrole derivatives and other drugs were tested for platelet aggregation inhibiting activities in vitro using platelet-rich plasmas (PRP) of man and guinea pigs. The results are shown as minimum concentration of drugs which inhibit more than 50% of platelet aggregation induced by several aggregating agents.
(§2) In experiments with PRP of guinea pigs, sodium arachidonate (final concentration 0.03 mM) was used as an aggregating agent. In experiments with human PRP, sodium arachidonate (final concentration 0.1 mM), collagan suspension (final concentration 10 μg/ml), epinephrine solution (final concentration 20 μg/ml; for secondary aggregation), an epinephrine solution (final concentration 2 μg/ml; for primary aggregation) and ADP (final concentration 5 μM) were used as aggregating agents.
In an experiment with guinea pig PRP, citrated blood (containing 0.38% sodium citrate as a final concentration) was withdrawn by cardiac puncture from Hartley-strain male guinea pigs having a body weight of 350 to 600 g. The citrated blood was centrifuged at 1,000 rpm for 10 minutes at room temperature, and the supernatant platelet suspension (PRP) was separated.
The PRP was stored at room temperature, and used as soon as possible. Those which had been stored for more than 4 hours after preparation were not used.
(§3) For each test, a drug is dissolved in dimethylsulfoxide to a concentration of 10 mg/ml, and diluted with physiological saline to form 1 ml each of solutions having a concentration of 2500 μg/ml, 1000 μg/ml, 750 μg/ml, 500 μg/ml, 250 μg/ml and 100 μg/ml. A compound having a free carboxylic acid as a residue such as indomethacine and Ibprofen was dissolved in 0.1 M NaHCO3 to form a sodium salt solution having a concentration of 10 mg/ml. Then, the solution was diluted with physiological saline in the same way as above to form a test drug solution.
(§4) Arachidonic acid (99% pure, a product of Sigma Co., Ltd.) was dissolved in 0.1 M NaHCO3, and a 3.3 mM solution of sodium arachidonate was prepared. The solution was diluted with physiological saline to a concentration of 1 mM and used in the experiments. The 3.3 mM solution was stored in a refrigerator as a stock solution, and the 1 mM solution was newly prepared from the stock solution every time it was used.
(§5) Physiological saline (50 μl) and 50 μl of the aggregating agent solution were added to 400 μl of PRP which had been pre-warmed and stirred at 37° C. in a quvett set in a holder of an aggregometer. Platelet aggregation was thus initiated, and the change of light transmittance through a stirred platelet suspension was recorded for 3 minutes by a recorder joined to the aggregometer. An increase in transmittance after 3 minutes (T0) was used as a parameter of the rate of platelet aggregation in control experiments.
To 400 μl of PRP in a quvett was added 50 μl of a test drug solution. The mixture was pre-incubated and stirred for 2 minutes at 37° C. Then 50 μl of the aggregating agent was added to drug containing PRP and again aggregation responses were recorded as increases in light transmittance after 3 minutes (T1) in the same way as in (1) above. Percent inhibition was calculated from the formula [formula]
For the above in vitro test for the inhibition of platelet aggregation, reference may be had to H. M. Davis, J. Phyllis, K. Paul and W. Terry: Thromb. Res. 11, 217-226 (1977) and R. E. Anderson and J. G. Foulks: Thromb. Haemos. 36, 343-359 (1976).

[2] = tested on: biosynthesis of prostaglandins (microsomes of the seminal vesicle of bovine); assay: Inhibitory effect on prostaglandin biosynthesis in vitro (Table 3); assay type: biochemical; settings: 4 μg/ml sodium arachidonate, bioassay on rat fundus stomach strips
Experimental: Sprangue-Dawley rats (male, 180-200 g) were fasted overnight, and killed by blow on the head. The stomach was isolated, and fundus stomach strips were prepared. The smooth muscle strips were perfused with Krebs-Hensleit solution (gassed with 95% O2 +5% CO2 gas) of 37° C. at a rate of […]. The Krebs-Hensleit solution contained 0.1 μg/ml of atropine, 0.1 μg/ml of phenoxybenzamine, 3 μg/ml of propranolol, 0.1 μg/ml of tripelennamine, and 0.2 μg/ml of methylsergide to prevent the effect of smooth muscle contracting substances, and 1 μg/ml of indomethacine to inhibit the biosynthesis of prostaglandin by the smooth muscles. Then, 150 μl of a reaction solution containing biologically synthesized prostaglandin was added to the perfusion solution, and the amount of the biologically synthesized prostaglandin was measured from the contraction of the smooth muscles. The contraction of the smooth muscles was recorded on a recorder using an isotonic transducer.
The reaction solution containing biologically synthesized prostaglandin was prepared in the following manner.
To 0.4 mg/ml of microsomes of the seminal vesicle of bovine were added 5 mM of L-tryptophan, 0.025 μM of bovine hemoglobin and 3 mμ of glutathione as cofactors. The mixture was incubated together with each of the test compounds shown in Table 4 at 37° C. for 2 minutes, and immediately then, 4 μg/ml of sodium arachidonate was added. The mixture was further incubated at 37° C. for 10 minutes, and immediately then, the prostaglandin activity of the reaction solution was measured by bioassay.
The microsomes of the seminal vesicle of bovine had been prepared by suspending microsomes of the seminal vesicle of bovine (a product of Miles Laboratories, Inc.) in a 50 mM Tris.HCl buffer (pH 7.4) using a glass homogenizer, and stored in ice water prior to use.
ID50 denotes the concentration of each test compound required to inhibit the biosynthesis of prostaglandins by 50%.

[3] = tested on: platelet aggregation (guinea pig PRP, extra vivo); assay: Inhibitory effect of compounds on platelet aggregation in extra vivo (Table 4); set-up: species or system Hartley-strain guinea pigs; settings: Cavia porcellus, 100 mg/kg, route PS [sic], 1 h
Experimental: The effect of the compounds shown in Table 4 on platelet aggregation was assessed using guinea pig in extra vivo.
Each of the test compounds was dissolved in propylene glycol so that its concentration became 100 mg/ml (dosage corresponded to 100 mg/kg) and 30 mg/ml (dosage corresponded to 30 mg/kg). The drug solution was administered either orally or subcutaneously to Hartley-strain guinea pigs (3 per group) having a body weight of 300 to 350 g. As a control, propylene glycol was administered. One hour after the administration, citrated blood was taken out by cardiac puncture, and centrifuged to obtain PRP (see Example 67).
In the case of oral administration, the animals had been fasted overnight.
Into a quvett set in a holder of an aggregometer and prewarmed at 37° C. with stirring, was put 450 μl of the above PRP, and then 50 μl of an aggregating agent was added. The aggregation curve was recorded for an additional 3 minutes, and an increase in light transmittance through PRP after 3 minutes (TB) was recorded (see Example 67). As a control, an increase of transmittance of PRP taken from a guinea pig group administered with propylene glycol alone (TA) was recorded in the same way above. The percent inhibitions were calculated in accordance with the following equation. [formula]
As the aggregating agent, sodium arachidonate (a final concentraton of 0.03 mM) and a collagen suspension (a final concentration of 5 μg/ml) were used.
The percent inhibitions in the above table are averages of three guinea pigs. For details of the above extra vivo test about inhibition of platelet aggregation, the literature references described in Example 67 may be referred to.

carrageenan edema = assay: Antiinflammatory activity (carrageenan edema of rat paw, Table 5); assay type: in vivo, Sprangue-Dawley (SD) male rats; settings: 25 mg/kg, 3 h after 1% carrageenan
Experimental: Sprangue-Dawley (SD) male rats with a body weight of 160 to 180 g, four in each group, were used. The volume of the left leg was measured, and each of the test compounds shown in Table 5 (100 mg/kg dissolved in polyethylene glycol so as to provide a volume of 2 ml/kg) was orally administered. One hour later, 0.1 ml of 1% carrageenan (dissolved in physiological saline) as an inflammation-inducing substance was subcutaneously injected to the paw of the left hind leg. A control group was orally administered with 2 ml/kg of polyethylene glycol. As a positive control, 25 mg/kg of Ibprofen was similarly administered. Three hours after the injection of 1% carrageenan, the volume of the left leg was measured, and the ratio of edema was calculated from the volume before the administration of the carrageenan. The percent inhibition of edema in comparison with the control group was determined.

[4] = tested on: platelet aggregation (human PRP); assay: Activity of inhibiting platelet aggregation in vitro, human PRP, several aggregating agents (Table 2); assay type: cell-based, human (healthy volunteers)
Experimental: as §1, §2
In the experiment using human PRP, heapinized blood (containing 20 IU/ml of heparin) was taken from the cubital vein of healthy volunteers, and centrifuged at 1,000 rpm at room temperature for 10 minutes. The supernatant platelet suspension (PRP) was separated.
as §3, §4
The collagen suspension (made by Hormon-Chemie, West Germany) was diluted with physiological saline to a concentraton of 100 μg/ml.
Epinephrine hydrogen tartarate was dissolved in physiological saline to form solutions having a concentration of 200 μg/ml (corresponding to a final concentration of 2 μg/ml).
Disodium salt of ADP was dissolved in a 0.1 M tris-hydrochloric acid buffer to form a 50 μM solution (corresponding to a final concentraton of 5 μM).
as §5
To 400 μl of PRP in a quvett was added 50 μl of a test drug solution. The mixture was pre-incubated and stirred for 2 minutes at 37° C. Then 50 μl of the aggregating agent was added to drug containing PRP and again aggregation responses were recorded as increases in light transmittance after 3 minutes (T1) in the same way as in (1) above. Percent inhibition was calculated from the formula [formula] […]

[5] = collagen 5 μg/ml, read-out: Percent inhibition of platelet aggregation, collagen
[6] = sodium arachidonate 0.03 mM, read-out: Percent inhibition of platelet aggregation, sodium arachidonate

Row | SMILES | IC50 [1] | ID50 (concentration required to inhibit the biosynthesis of prostaglandins by 50%) [2] | further results
1 | CCOC(=O)C(C)n1c(C)cc(C(=O)c2ccccc2)c1C (centres unmarked) [Compound 706, ethyl 2-(3-benzoyl-2,5-dimethylpyrrol-1-yl) propionate] | 1 µg/mL (≈ 3.34 µM) | 20.0 µg/mL | –
2 | CC(=O)Oc1ccccc1C(=O)O [Acetylsalicylic acid, reference compound] | – | – | inhibition at 100 mg/kg [3, 5]: 41%; inhibition at 100 mg/kg [3, 6]: 77%
3 | COCCn1c(C)cc(C(=O)c2ccccc2C)c1C [Compound 238, 2-(3-o-methylbenzoyl-2,5-dimethylpyrrol-1-yl) ethyl methyl ether] | 10 µg/mL (≈ 36.9 µM) | – | –
4 | Cc1cc(C(=O)c2ccccc2)c(C)n1CCO [Compound 100, 2-(3-benzoyl-2,5-dimethylpyrrol-1-yl)-ethanol] | 5 µg/mL (≈ 20.6 µM) | 145.3 µg/mL | –
5 | Cc1cc(C(=O)c2ccccc2)c(C)n1C(C)C(N)=O (centres unmarked) [Compound 802, 2-(3-benzoyl-2,5-dimethylpyrrol-1-yl)propionamide] | 5 µg/mL (≈ 18.5 µM) | – | inhibition at 100 mg/kg [3, 5]: 40%; inhibition at 100 mg/kg [3, 6]: 100%
6 | CCCCC(=O)OCC(C)n1c(C)cc(C(=O)c2ccccc2)c1C (centres unmarked) [Compound 310, 2-(3-benzoyl-2,5-dimethylpyrrol-1-yl)-2-methylethyl valerate] | 2.5 µg/mL (≈ 7.32 µM) | 11.5 µg/mL | –
7 | COCCn1c(C)cc(C(=O)c2cccs2)c1C [Compound 252, 2-[3-(2-thenoyl)-2,5-dimethylpyrrol-1-yl]-ethyl methyl ether] | 2.5 µg/mL (≈ 9.49 µM) | – | –
8 | Cc1cc(C(=O)c2ccccc2)c(C)n1[C@@H](C)CO [Compound 108, (2S)-2-(3-benzoyl-2.5-dimethylpyrrol-1-yl)-2-methylethanol] | 5 µg/mL (≈ 19.4 µM) | – | inhibition at 100 mg/kg [3, 5]: 14%; inhibition at 100 mg/kg [3, 6]: 62%
9 | Cc1cc(C(=O)c2ccccc2)c(C)n1C(C)COC(=O)c1ccccc1 (centres unmarked) [Compound 314, 2-(3-benzoyl-2,5-dimethylpyrrol-1-yl)-2-methylethyl benzoate] | 1 µg/mL (≈ 2.77 µM) | 56.0 µg/mL | –
10 | Cc1cc(C(=O)c2ccccc2)c(C)n1[C@H](C)CO [Compound 110, (2R)-2-(3-benzoyl-2,5-dimethylpyrrol-1-yl)-2-methylethanol] | 1 µg/mL (≈ 3.89 µM) | – | inhibition at 100 mg/kg [3, 5]: 90%; inhibition at 100 mg/kg [3, 6]: 96%
11 | CC(=O)OC(c1ccccc1)C(C)n1c(C)cc(C(=O)c2ccccc2)c1C (centres unmarked) [Compound 328, 2-(3-benzoyl-2,5-dimethylpyrrol-1-yl)-2-methyl-1-phenylethyl acetate] | 2.5 µg/mL | – | –
12 | COC(c1ccccc1)C(C)n1c(C)cc(C(=O)c2ccccc2)c1C (centres unmarked) [Compound 218, 2-(3-benzoyl-2,5-dimethylpyrrol-1-yl)-2-methyl-1-phenylethyl methyl ether] | 5 µg/mL (≈ 14.4 µM) | – | –
13 | CC(C)Cc1ccc(C(C)C(=O)O)cc1 (centres unmarked) [Ibprofen, reference compound] | – | – | Percent inhibition of edema (positive control) (carrageenan edema): 51%
14 | COc1ccc2c(c1)c(CC(=O)O)c(C)n2C(=O)c1ccc(Cl)cc1 [Indomethacine] | 5 µg/mL (≈ 14 µM) | 0.6 µg/mL | IC50 ([4]; ADP 5 μM, read-out: IC50, aggregation by ADP): 10 µg/mL (≈ 27.9 µM); IC50 ([4]; arachidonate 0.1 mM, read-out: IC50, aggregation by arachidonate): 1 µg/mL (≈ 2.79 µM); IC50 ([4]; collagen 10 μg/ml, read-out: IC50, aggregation by collagen): 10 µg/mL (≈ 27.9 µM); IC50 ([4]; epinephrine 2 μg/ml, primary aggregation, read-out: IC50, aggregation by epinephrine, primary): 10 µg/mL (≈ 27.9 µM); IC50 ([4]; epinephrine 20 μg/ml, secondary aggregation, read-out: IC50, aggregation by epinephrine, secondary): 1 µg/mL (≈ 2.79 µM)
15 | Cc1cc(C(=O)c2ccccc2)c(C)n1CCSc1ccccc1 [Compound 404, 2-(3-benzoyl-2,5-dimethylpyrrol-1-yl)ethyl phenyl sulfide] | 2.5 µg/mL (≈ 7.45 µM) | – | –
